Results taken from patent US9918971B2, “Aerosol formulations of granisetron and uses thereof” (LUXENA PHARMACEUTICALS, INC., priority 2013, dated 2018).
In brackets after ≈: the same amount, converted by molar mass. Several values for one entry are separate records, joined by “and”; a condition that tells them apart may be missing. Identical values can stand only once. Like-named read-outs stand apart in the source and are kept apart here.

Legend:
[1] = Particle size distribution of spray dried granisetron fine powder by Malvern Mastersizer; conditions: typical particle size distribution
[2] = Solubility of granisetron in pMDI medium; assay type: physicochemical
Experimental: The solubility of granisetron was measured in a pMDI medium of HFA 134 as well as a mixture of HFA 134 and ethanol.

[3] = Particle size distribution of jet milled granisetron fine powder by Malvern Spraytec

## CN1C2CCCC1CC(NC(=O)c1nn(C)c3ccccc13)C2 (stereo not shown) [Spray Dried Granisetron Fine Powder, granisetron]
[1]
  Cumulative % on <9 μm: 98.0%
  D10: 1.01 μm
  D50: 2.33 μm
  D90: 5.34 μm

## CN1C2CCCC1CC(NC(=O)c1nn(C)c3ccccc13)C2 (stereo not shown) [granisetron]
[2]; HFA 134a with Ethanol (9:1), 10 days
  Solubility, single determinations: 74.29 µg/mL and 97.99 µg/mL and 73.93 µg/mL
[2]; HFA 134a with Ethanol (9:1), ~24 Hours
  Solubility, single determinations: 84.173 µg/mL and 81.496 µg/mL
[2]; HFA 134a, 24 hours, converted with gravity 1.21 g/mL
  Solubility: 0.00018 % w/w
[2]; HFA 134a, 10 days
  Solubility, single determinations: 14.84 µg/mL and 10.26 µg/mL and 11.51 µg/mL and 15.77 µg/mL
[2]; HFA 134a, 10 days, converted with gravity 1.21 g/mL
  Solubility: 0.00108 % w/w
[2]; HFA 134 and ethanol, 24 hours
  Solubility: 0.00706 % w/w
[2]; HFA 134 and ethanol, 10 days
  Solubility: 0.00681 % w/w
[2]; pMDI medium (HFA 134a propellant), organic solvent or mixture, HFA 134a, 10 days, read-out: Solubility, Average (RSD)
  solubility at 10 days: 13.1 µg/mL (≈ 42 µM)
[2]; pMDI medium (HFA 134a propellant), organic solvent or mixture, HFA 134a, 10 days, read-out: Solubility, single determinations
  solubility at 10 days: 13.2 µg/mL (≈ 42.1 µM)
[2]; pMDI medium (HFA 134a propellant), organic solvent or mixture, HFA 134a, ~24 Hours, read-out: Solubility, Average (RSD)
  Solubility: 2.17 µg/mL (≈ 6.95 µM)
[2]; pMDI medium (HFA 134a with ethanol), organic solvent or mixture, HFA 134a with Ethanol (9:1), 10 days, read-out: Solubility, Average (RSD)
  solubility at 10 days: 82.4 µg/mL (≈ 264 µM)
[2]; pMDI medium (HFA 134a with ethanol), organic solvent or mixture, HFA 134a with Ethanol (9:1), 10 days, read-out: Solubility, single determinations
  solubility at 10 days: 79.9 µg/mL (≈ 256 µM)
[2]; pMDI medium (HFA 134a with ethanol), organic solvent or mixture, HFA 134a with Ethanol (9:1), ~24 Hours, read-out: Solubility, Average (RSD)
  Solubility: 85.5 µg/mL (≈ 274 µM)
[2]; pMDI medium (HFA 134a with ethanol), organic solvent or mixture, HFA 134a with Ethanol (9:1), ~24 Hours, read-out: Solubility, single determinations
  Solubility: 90.8 µg/mL (≈ 291 µM)

## CN1C2CCCC1CC(NC(=O)c1nn(C)c3ccccc13)C2.Cl (stereo not shown) [jet milled granisetron, Granisetron HCl]
[3]; after fifth milling cycle
  mass less than 5 μm in diameter: approximately 75%
[3]; milling cycle 0
  D10: 3.77 μm
  D50: 50.21 μm
  D90: 445.02 μm
[3]; milling cycle 1
  D10: 2.22 μm
  D50: 7.01 μm
  D90: 20.59 μm
[3]; milling cycle 3
  D10: 1.44 μm
  D50: 3.99 μm
  D90: 9.90 μm
[3]; milling cycle 5
  D10: 1.59 μm
  D50: 3.79 μm
  D90: 8.13 μm
